Reference: ChEMBL document CHEMBL1156829 (Proc Natl Acad Sci U S A, 2008)

Columns and labels:
[1] = tested on: Plasmodium falciparum; assay: NOVARTIS: Inhibition of Plasmodium falciparum W2 (drug-resistant) proliferation in erythrocyte-based infection assay; assay type: functional, organism-based; conditions: Plasmodium falciparum, W2; read-out: EC50
[2] = tested on: Plasmodium falciparum; assay: NOVARTIS: Inhibition of Plasmodium falciparum 3D7 (drug-susceptible) proliferation in erythrocyte-based infection assay; assay type: functional, organism-based; conditions: Plasmodium falciparum, 3D7
[3] = NOVARTIS: Cytotoxicity against human hepatocellular carcinoma cell line (Huh7); assay type: toxicity, cell-based, Huh-7; conditions: Huh7 cells (hepatocellular carcinoma cell line)

| Compound | EC50 [1] [nM] | EC50 [2] [nM] | CC50 [3] [nM] |
| --- | --- | --- | --- |
| COC(=O)C1=C(O)/C(=C\c2cc(C)n(-c3ccccc3F)c2C)N=C1C | > 1250 | > 974 | > 10000 |
| OP1(O)=NP(O)(O)=NP(O)(O)=NP(O)(O)=N1 | > 1250 | 811 | > 10000 |
| CC(C)Sc1nc2c(c(=O)n1Cc1ccco1)C1(CCCCC1)Cc1ccccc1-2 | > 12500 | 9560 | > 100000 |
| O=C(CSc1nc2ccccc2[nH]1)Nc1ccc(Cl)cc1Cl | > 1250 | > 790 | > 10000 |
| CCOC(=O)C1=C(C)N=c2sc(=Cc3ccccc3OCc3ccccc3)c(=O)n2C1c1ccccc1OC(C)C (configuration not stated) | > 12500 | 9730 | > 100000 |
| Cc1ccn(C(=O)NCCNC(=O)Nc2ccc(Cc3ccc(NC(=O)NCCNC(=O)n4ccc(C)n4)cc3)cc2)n1 | > 1250 | > 953 | > 10000 |
| COc1cccc(CN2CCN(C(=O)c3c(C)noc3C)[C@@H](C)C2)c1 | > 1250 | > 936 | > 10000 |
| CON(C)C(=O)c1cccc2ccccc12 | > 1250 | 856 | > 10000 |
| Cc1ccc(N=C2C(=O)Nc3ccc(C)c(Br)c32)c(O)c1 | > 1250 | > 963 | > 10000 |
| O=C(/C=C/c1ccccc1Cl)Nc1ccc(Oc2ccc3ccccc3c2Cl)c(Cl)c1 | > 1250 | > 958 | > 10000 |
| O=C(Nc1ccccc1Cl)NC1(C(=O)NCC2CCCO2)CCCCC1 (configuration not stated) | > 1250 | > 984 | > 10000 |
| CC(C)CNC(=O)c1cnc(NCCCN(C)C)nc1NCCc1ccccc1 | > 1250 | 983 | > 10000 |
| O=C(O)c1c[nH]c2cc(N3CCCCCC3)c(F)cc2c1=O | > 12500 | > 9800 | > 100000 |
| CS(=O)(=O)Nc1cccc(-c2cnc(N)c(-c3ccc(C(=O)N4CCOCC4)cc3)n2)c1 | > 1250 | > 976 | > 10000 |
| CCN1CCN(c2cc(C)c3cc(NC(=O)/C=C/c4ccccc4Cl)ccc3n2)CC1 | > 1250 | 966 | > 10000 |
| CCCCNC(=O)c1ccc2c(c1)N=C(c1cccc(OCC)c1)N(CCCN1CCCC1=O)C2 | > 1250 | > 752 | > 10000 |
| O=C(CSc1nc2ccccc2c(=O)n1-c1ccc(C(=O)N2CCOCC2)cc1)c1ccccc1 | > 1250 | > 772 | > 10000 |
| CN(C)C(=O)CN(C)C(=O)c1cnc2scc(C(C)(C)C)n2c1=O | > 1250 | > 820 | > 10000 |
| COCCN(CC(=O)Nc1cc(C(C)(C)C)nn1-c1ccc(C)cc1)C(=O)COCc1ccccc1 | > 1250 | > 818 | > 10000 |
| CN(C)CCCNc1ncc(C(=O)NCc2ccccc2)c(NCCc2ccccc2)n1 | > 1250 | 817 | > 10000 |
| O=C1C=CC(=O)N1c1ccc(Sc2ccc(N3C(=O)C=CC3=O)cc2)cc1 | > 1250 | > 814 | > 10000 |
| COc1ccc(OCCOCCN2CCN(C)CC2)cc1 | > 12500 | > 8080 | > 100000 |
| O=C(COc1ccccc1Cl)OCc1cc(=O)n2nc(C3CC3)sc2n1 | > 1250 | > 803 | > 10000 |

| Compound | EC50 [1] [nM] | EC50 [2] [nM] | CC50 [3] [nM] |
| --- | --- | --- | --- |
| COc1ccc(NC(=O)COc2ccccc2C(C)C)c(OC)c1 | > 12500 | 7950 | > 100000 |
| COc1ccc(Cn2c(SCC(=O)Nc3ccccc3OC)nc3ccsc3c2=O)cc1 | > 1250 | > 778 | > 10000 |
| CC(C)CNc1nc(NCCC2CCCN2C)ncc1C(=O)NCc1ccccc1 (configuration not stated) | > 1250 | 775 | > 10000 |
| CC(=O)OC(OC(C)=O)C12C=CC(O1)C1C(=O)N(c3cccc(C)c3)C(=O)C12 (configuration not stated) | > 1250 | > 794 | > 10000 |
| O=C(OCCOc1ccc([N+](=O)[O-])cc1)c1ccc(Br)o1 | > 1250 | 782 | > 10000 |
| COC(=O)c1[nH]c2ccc(Cl)cc2c1NC(=O)C(C)N1CCN(C2CCCCC2)CC1 (configuration not stated) | > 12500 | 7740 | > 100000 |
| CC(C)CNC(=O)c1cnc(NCCCN2CCCC2)nc1NC1CCCC1 | > 1250 | 774 | > 10000 |
| COc1ccc(/C=C(\NC(=O)c2ccccc2Br)C(=O)N2CC3CC(C2)c2cccc(=O)n2C3)cc1OC (configuration not stated) | > 1250 | > 764 | > 10000 |
| NC(=O)C1CCN(S(=O)(=O)c2cc(Br)c(Br)s2)CC1 | > 1250 | > 751 | > 10000 |
| OCC1CCCN1c1nccnc1-c1ccccc1Oc1ccccc1 (configuration not stated) | > 1250 | > 868 | > 10000 |
| CCN(CC)Cc1cc(Nc2nc3ccccc3[nH]2)cc(CN(CC)CC)c1O | > 1250 | 864 | > 10000 |
| COc1ccc(Cn2nnnc2CN2CCc3ccccc3C2)cc1 | > 1250 | > 853 | > 10000 |
| O=C(O)CC12CC3CC(C1)CC(c1ccc([N+](=O)[O-])cc1)(C3)C2 | > 1250 | > 883 | > 10000 |
| COc1ccc(/C=C/C(=O)Nc2ccc3nc(N4CCN(C)CC4)cc(C)c3c2)cc1OC | > 1250 | 872 | > 10000 |
| Cc1c(NC(=S)N2CCOCC2)c(=O)n(-c2ccccc2)n1C | > 1250 | > 919 | > 10000 |
| O=C(CSc1nnc2c(n1)[nH]c1ccccc12)Nc1ccc([N+](=O)[O-])cc1 | > 12500 | 9110 | > 100000 |
| COc1cc(O)c2c(=O)cc(CCOC(=O)Nc3ccccc3)[nH]c2c1 | > 1250 | > 905 | > 10000 |
| Cc1cc(C)n(-c2ccc(NC(=O)C3CCN(Cc4cc(C)c(C)o4)CC3)cc2)n1 | > 1250 | 888 | > 10000 |
| Nc1ccc(-c2cc(N)n(-c3ccc(Oc4ccccc4)c(S(=O)(=O)O)c3)n2)cc1 | > 1250 | > 921 | > 10000 |
| CC(C)CNC(=O)c1cnc(NCCC2CCCN2C)nc1NCC1CCCCC1 (configuration not stated) | > 1250 | 920 | > 10000 |
| O=C(COC(=O)c1ccc2c(c1)C(=O)N(c1ccc3ccccc3c1)C2=O)c1ccc(Br)cc1 | > 1250 | > 919 | > 10000 |
| CCOC(=O)c1oc2cc(O)c(CC)cc2c(=O)c1-c1ccc2c(c1)OCO2 | > 1250 | > 834 | > 10000 |
| CN(C)c1nnc(/C(C#N)=C/c2cc(C(=O)c3cccc(Cl)c3)cn2C)o1 | > 1250 | 936 | > 10000 |

| Compound | EC50 [1] [nM] | EC50 [2] [nM] | CC50 [3] [nM] |
| --- | --- | --- | --- |
| c1cn2c(-c3ccc(N4CCOCC4)cc3)cnc2c(NCc2ccc3c(c2)OCO3)n1 | > 1250 | > 927 | > 10000 |
| CN(C)CCCNC(=O)c1ccc(-c2cncc(-c3cccc(O)c3)n2)cc1 | > 1250 | 923 | > 10000 |
| O=[N+]([O-])c1cc(NC2OC(CO)C(OC3OC(CO)C(O)C(O)C3O)C(O)C2O)ccc1Cl (configuration not stated) | > 1250 | > 848 | > 10000 |
| Cc1ccccc1Oc1ccc(S(=O)(=O)NC(CC(C)C)C(=O)O)cc1 (configuration not stated) | > 1250 | > 846 | > 10000 |
| Cc1cccc(N(C)c2ccnc3c(-c4cccc(C(N)=O)c4)cnn23)c1 | > 1250 | > 843 | > 10000 |
| O=C(NCc1ccccc1)c1cnc(NCCN2CCCCC2)nc1NCCc1ccccc1 | > 1250 | 950 | > 10000 |
| CC1CCCCN1CCCNc1ncc(C(=O)NCc2ccccc2)c(NC2CCCC2)n1 (configuration not stated) | > 1250 | 943 | > 10000 |
| CC1(C)CC(=O)c2cc(-c3ccc(Br)cc3)n(-c3ccccc3F)c2C1 | > 1250 | > 972 | > 10000 |
| CCN1CC=C2C(C#N)=C(N)C(C#N)(C#N)C(c3ccc(C)s3)C2C1 (configuration not stated) | > 1250 | > 877 | > 10000 |
| CC(=O)C1=C(O)C(=O)N(c2ccc(Br)cn2)C1c1ccccc1[N+](=O)[O-] (configuration not stated) | > 12500 | > 9610 | > 100000 |
| CCCCCOC(=O)C1=C(C)Nc2ncnn2C1c1cccc([N+](=O)[O-])c1 (configuration not stated) | > 1250 | > 988 | > 10000 |
| CCN(CC)c1ccc2c(c1)OC(N)=C(C#N)C2c1ccsc1 (configuration not stated) | > 12500 | > 9540 | > 100000 |
| N#Cc1cn(-c2ccc(Cl)cc2)c(=O)n(Cc2c(Cl)cccc2Cl)c1=O | > 1250 | 816 | > 10000 |
| Cc1ccc2c(nc3sc(=Cc4ccc(-c5ccccc5F)o4)c(=O)n32)c1C | > 1250 | 921 | > 10000 |
| CC1(C)CC(=O)C(=CNc2nc3c(s2)CCc2c-3cnn2-c2ccccc2)C(=O)C1 | > 1250 | > 942 | > 10000 |
| COc1ccc(CNC(=O)CCc2cn(Cc3cc(C)ccc3C)c3ccccc23)cc1OC | > 1250 | > 842 | > 10000 |
| FC(F)(F)COc1ccc(OCC(F)(F)F)c(-c2ncnn2-c2ccccc2)c1 | > 12500 | > 9910 | > 100000 |
| O=C(Cn1c2ccccc2c(=O)c2cc([N+](=O)[O-])ccc21)Nc1cccc(Cl)c1 | > 1250 | > 880 | > 10000 |
| CC1CCCCN1CCCNc1ncc(C(=O)NCCCN2CCCC2=O)c(NCC2CCCCC2)n1 (configuration not stated) | > 1250 | 850 | > 10000 |
| CC1Cc2ccccc2N1C(=O)Cn1c(=O)oc2ccccc21 (configuration not stated) | > 1250 | > 907 | > 10000 |
| CCCCCc1ccc(-c2cn3nc(CCCCC)sc3n2)cc1 | > 1250 | > 921 | > 10000 |
| Cc1ccc(S(=O)(=O)Nc2ccc(C(=O)NCCC(C)C)cc2)cc1 | > 1250 | > 837 | > 10000 |
| Cc1cccc2nc(N)nc(N)c12 | > 1250 | 753 | > 10000 |
